The source of these data is ChEMBL document CHEMBL1148223, “Isolation and phytotoxicity of apocarotenoids from Chenopodium album” (2004).

The source made the active and inactive calls. No cut-off for these calls is given here.

Assay type in all cases: functional
The subject of test [1] is Lactuca sativa. Description: Reduction of Lactuca sativa length development. The arrangement: scale not given: the % may be the effect or the level left.
For test [2], the system named is Lactuca sativa. Description: Reduction of Lactuca sativa seeds germination at 100 uM daily for 5 days relative to control. To be noted: for inhibition at 100 µM: Lactuca sativa, 120 h.
Test [3] concerns Lactuca sativa. Description: Reduction of Lactuca sativa shoot length at 0.1 uM relative to control. Also on record: scale not given: the % may be the effect or the level left.
Test [4] deals with Lactuca sativa. Description: Reduction of Lactuca sativa root length at 0.1 uM relative to control. The arrangement: scale not given: the % may be the effect or the level left.

Turning to `CC1=CC(=O)CC(C)(C)[C@@]1(O)/C=C/[C@@H](C)O` [BLUMENOL A], the Activity in the test on Lactuca sativa [1] was found to be 30%. With `CC1=CC(=O)CC(C)(C)[C@@]1(O)/C=C/C(C)=C/CO`, in the test with Lactuca sativa [2], the outcome was Active. In the test on Lactuca sativa [2], `CC(=O)/C=C/[C@H]1C(C)=C[C@H](O)CC1(C)C` came in with an inhibition at 100 µM of 30%. Compound `CC(=O)/C=C/C=C(C)/C=C/[C@@]1(O)C(C)=CC(=O)CC1(C)C` came in with an Activity in the test on Lactuca sativa [2] of 20%.

Compound `CC(=O)/C=C/[C@H]1C(C)=CC(=O)CC1(C)C` came in with an inhibition at 100 µM with Lactuca sativa [2] of 30%. Turning to `CC(=O)/C=C/[C@@]1(O)C(C)=CC(=O)CC1(C)C`, in the test with Lactuca sativa [1], the Activity was determined as 30%. Turning to `CC(=O)/C=C/C=C(C)/C=C/[C@H]1C(C)=C[C@H](O)CC1(C)C`, the Activity with Lactuca sativa [2] is listed as 20%. On to `CC(=O)C=C=C1C(C)(C)C[C@H](O)C[C@@]1(C)O`, for which the Activity was determined as 30% with Lactuca sativa [3] and 20% in the test on Lactuca sativa [4].
